From patent US9969758B2, “Antimicrobial compounds” (BIOMERIEUX, priority 2014, dated 2018)
Read-outs that look alike come from different tables or passages of the source.

Experiments:
Experiment in all cases: MIC by agar dilution
[1] = system: K. pneumoniae (87); assay type: cell-based, Klebsiella pneumoniae; conditions: K. pneumoniae (87)
Source text: (§1) Bacterial isolates. […] These included Citrobacter freundii (n=5), other species of Citrobacter (n=4), Enterobacter aerogenes (n=1), Enterobacter cloacae (n=27), Escherichia coli (n=53), Klebsiella oxytoca (n=5), Klebsiella pneumoniae (n=87), Kluyvera spp (n=1), Proteus mirabilis (n=8), Providencia rettgeri (n=2), Salmonella spp (n=3), and Serratia marcescens (n=1). Among these 197 isolates, there were 128 (65%) carbapenemase producers, including; 87 with NDM-1, 9 with IMP, 11 with KPC, 14 with OXA-48 and 7 with VIM. The majority of the carbapenemase producers jointly produced broad-spectrum β-lactamases (BSBL) or cephalosporinases (AmpC β-lactamases), but the latter are not documented for the sake of clarity.
(§2) Determining the minimum inhibitory concentrations (MIC). All the MICs were determined using an agar dilution method. This required use of a medium without a defined antagonist (peptone-free), prepared as described previously with the inclusion of 2% horse blood lysed with saponin, 25.0 μg/mL of NAD and 25.0 μg/mL of hemin [17]. The compounds tested were dissolved in sterile deionised water and incorporated into the agar medium in a concentration range of 0.0031 to 8.0 μg/mL (0.016 to 32 μg/mL for gram-positive bacteria). All the isolates were prepared at a density equivalent to 0.5 McFarland units in sterile deionised water using a densitometer (approximately 1.5×10^8 CFU/mL), and then diluted to 1 for 15. An aliquot of 1 μL of each diluted suspension was then placed onto plates with a multispot inoculator to give the final recommended inoculation of 10 000 CFU/spot. The MICs of fosfomycin were determined by the same method, except that the IsoSensitest medium (Oxoid, Basingstoke, United Kingdom) was used, plus 25.0 μg/mL of glucose-6-phosphate (Sigma, Poole, United Kingdom) and an extended range of fosfomycin concentrations. All the dishes (including the antimicrobial-free controls) were incubated for 22 hours at 37° C. All the tests were performed on at least two independent replicates in order to examine the reproducibility.

[2] = system: AmpC (22); assay type: cell-based, Enterobacteriaceae
Source text: as §1, §2

[3] = system: All S. aureus (50); assay type: cell-based, Staphylococcus aureus; conditions: All S. aureus (50)
Source text: (§3) A collection of 50 isolates of Staphylococci aureus included 36 strains of methicillin-resistant S. aureus (MRSA) frequently encountered in Europe, including strains isolated in Belgium, Finland, France, Germany and the United Kingdom. Another strain of MRSA, NCTC 11939, was included as a control, as well as a methicillin-sensitive control (NCTC 6571). Twelve other isolates of methicillin-sensitive Staphylococcus aureus (MSSA) recently collected from blood cultures were also included. Finally, 50 isolates of enterococci included two control strains (Enterococcus faecalis NCTC 755 and Enterococcus faecium NCTC 7171) and 48 isolates originating from clinical samples obtained from at least three different hospitals. The clinical isolates included E. faecalis (n=10), E. faecium (n=33), Enterococcus casseliflavus (n=3), Enterococcus gallinarum (n=2).
as §2

[4] = system: E. faecalis (11); assay type: cell-based, Enterococcus faecalis; conditions: E. faecalis (11)
Source text: as §3, §2

[5] = system: All Enterococci (50); assay type: cell-based
Source text: as §3, §2

[6] = system: glycopeptide-resistant enterococci; assay type: cell-based; conditions: GRE (43)
Source text: as §3, §2

[7] = system: methicillin-resistant Staphylococcus aureus; assay type: cell-based
Source text: as §3, §2

[8] = system: methicillin-sensitive Staphylococcus aureus; assay type: cell-based; conditions: MSSA (13)
Source text: as §3, §2

[9] = system: E. faecium (34); assay type: cell-based, Enterococcus faecium
Source text: as §3, §2

[10] = system: E. cloacae (27); assay type: cell-based, Enterobacter cloacae; conditions: E. cloacae (27)
Source text: as §1, §2

[11] = system: Enterobacteriaceae with a broad-spectrum β-lactamase; assay type: cell-based
Source text: as §1, §2

[12] = system: Enterobacteriaceae (197); assay type: cell-based; conditions: Enterobacteriaceae (197)
Source text: as §1, §2

[13] = system: carbapenemase-producing Enterobacteriaceae; assay type: cell-based
Source text: as §1, §2

[14] = system: E. coli (53); assay type: cell-based, Escherichia coli; conditions: E. coli (53)
Source text: as §1, §2

[15] = read-out: Modal MIC (most frequent MIC)
[16] = Staphylococcus aureus, read-out: MIC50
[17] = Staphylococcus aureus, read-out: MIC90
[18] = Staphylococcus aureus, read-out: Modal MIC (most frequent MIC)

C[C@H](N)C(=O)N[C@@H](C)C(=O)N[C@@H](C)P(=O)(O)O [Di-alanyl fosfalin, L-alanyl-L-alanyl-L-1-aminoethylphosphonic acid]
~16 times: MICs lower than those of alafosfalin, on average ([5]; enterococci)
≤0.016-4 ^ μg/mL: MIC Range ([9]; E. faecium (34))
16 µg/mL: MIC90 [3] | MIC90 ([7]; MRSA (37)) | MIC90 [8] | Modal MIC (most frequent MIC) [8]
0.5 µg/mL: MIC90 [4] | MIC50 ([5]; All Enterococci (50)) | Modal MIC (most frequent MIC) ([5]; All Enterococci (50)) | MIC50 [6] | Modal MIC (most frequent MIC) [6] | MIC50 ([9]; E. faecium (34)) | Modal MIC (most frequent MIC) ([9]; E. faecium (34)) | MIC50 [14]
4 µg/mL: Modal MIC (most frequent MIC) [3] | Modal MIC (most frequent MIC) ([7]; MRSA (37)) | concentration by which all isolates were inhibited ([9]; 34 E. faecium isolates (including 31 vancomycin-resistant)) | Modal MIC (most frequent MIC) [10]
8 µg/mL: MIC50 [3] | MIC50 ([7]; MRSA (37)) | MIC50 [8] | MIC50 ([11]; BSBL (47)) | MIC50 [12] | MIC50 ([13]; CPE (128))
>8 µg/mL: MIC50 [1] | MIC90 [1] | Modal MIC (most frequent MIC) [1] | MIC50 ([2]; AmpC (22)) | MIC90 ([2]; AmpC (22)) | Modal MIC (most frequent MIC) ([2]; AmpC (22)) | MIC50 [10] | MIC90 [10] | MIC90 ([11]; BSBL (47)) | Modal MIC (most frequent MIC) ([11]; BSBL (47)) | MIC90 [12] | Modal MIC (most frequent MIC) [12] | MIC90 ([13]; CPE (128)) | Modal MIC (most frequent MIC) ([13]; CPE (128))
256 times: MICs lower than those of alafosfalin, in certain cases ([5]; enterococci)
>32 µg/mL: MIC90 [6]
0.5 to 32 µg/mL: MIC Range [3] | MIC Range ([7]; MRSA (37)) | MIC Range [8]
0.25 µg/mL: Modal MIC (most frequent MIC) [14]
2 µg/mL: MIC90 ([5]; All Enterococci (50)) | MIC90 ([9]; E. faecium (34)) | MIC90 [14]
0.031 µg/mL: Modal MIC (most frequent MIC) [4]
0.063 µg/mL: MIC50 [4]

C[C@H](NC(=O)[C@H](CCl)NC(=O)[C@@H](N)CCl)P(=O)(O)O [β-Cl-Ala-β-Cl-Alafosfalin, β-chloro-L-alanyl-β-chloro-L-alanyl-L-1-aminoethylphosphonic acid]
> 8 µg/mL: MIC90 ([1]; Klebsiella pneumoniae, read-out: MIC90) | MIC90 [2] | MIC [2, 15] | MIC90 [11] | MIC [11, 15] | MIC90 ([12]; read-out: MIC90)
16 µg/mL: MIC50 [3, 16] | MIC90 [3, 17] | MIC [3, 18] | MIC90 ([5]; All Enterococci (50), read-out: MIC90) | MIC90 ([6]; read-out: MIC90) | MIC ([7]; Staphylococcus aureus, MRSA, read-out: Modal MIC (most frequent MIC)) | MIC50 ([7]; Staphylococcus aureus, MRSA (37), read-out: MIC50) | MIC90 ([7]; Staphylococcus aureus, MRSA (37), read-out: MIC90) | MIC50 [8, 16] | MIC90 [8, 17] | MIC [8, 18]
2 to 16 µg/mL: MIC Range [3] | MIC Range ([7]; MRSA (37))
≤0.031-1 ^ μg/mL: MIC Range [14]
4 to 16 µg/mL: MIC Range [8]
8 µg/mL: MIC50 ([5]; All Enterococci (50), read-out: MIC50) | MIC ([5]; All Enterococci (50), read-out: Modal MIC (most frequent MIC)) | MIC50 ([6]; read-out: MIC50) | MIC50 ([9]; Enterococcus faecium, E. faecium (34), read-out: MIC50) | MIC90 ([9]; Enterococcus faecium, E. faecium (34), read-out: MIC90) | MIC ([9]; Enterococcus faecium, E. faecium (34), read-out: Modal MIC (most frequent MIC)) | MIC90 [13]
2 µg/mL: MIC50 ([12]; read-out: MIC50) | MIC50 [13]
0.25 to 8 µg/mL: MIC Range [10]
0.25 µg/mL: MIC50 ([4]; Enterococcus faecalis, read-out: MIC50) | MIC ([4]; Enterococcus faecalis, read-out: Modal MIC (most frequent MIC)) | MIC50 ([14]; Escherichia coli, read-out: MIC50) | MIC ([14]; Escherichia coli, read-out: Modal MIC (most frequent MIC))
1 µg/mL: MIC50 ([10]; Enterobacter cloacae, read-out: MIC50) | MIC ([10]; Enterobacter cloacae, read-out: Modal MIC (most frequent MIC)) | MIC90 ([14]; Escherichia coli, read-out: MIC90)
4 µg/mL: MIC50 ([1]; Klebsiella pneumoniae, read-out: MIC50) | MIC ([1]; Klebsiella pneumoniae, read-out: Modal MIC (most frequent MIC)) | MIC90 ([4]; Enterococcus faecalis, read-out: MIC90) | MIC90 ([10]; Enterobacter cloacae, read-out: MIC90) | MIC50 [11] | MIC [12, 15] | MIC [13, 15]
